Measured values published in patent publication US10435399B2, “HDAC6 inhibitory heterocyclic compound” (TAKEDA PHARMACEUTICAL COMPANY LIMITED, priority 2017, dated 2019).

Key:
[1] = tested on: P301S mutant human tau (4R1N) Tg mouse; assay: Cognitive improvement action in neurodegenerative disease model mouse (novel object recognition test); type: in vivo
Protocol: Cognitive Improvement Action in Neurodegenerative Disease Model Mouse
A drug was suspended in 0.5% methyl cellulose to prepare a suspension for administration. The suspension was repeatedly administered into six month-old male P301S mutant human tau (4R1N) Tg mouse once a day for three months, and novel object recognition test was performed by the following method. The test is comprised of memory acquisition trial of object on the first day, and memory retention trial of familiar object and novel object on the second day. Drug was administered into the mouse 1 hr before the trials on both days. For acquisition trial, The mouse was put in a test box (30 cm×30 cm×25 cm) in which two identical objects were placed, and contact frequency and contact duration with the objects for 5 min were measured under 50 lux. […] Next day, one of the objects was replaced with new object, and contact frequency and contact duration with each object for 5 min were measured. Novelty Discrimination Index (NDI) as an index of cognitive function was calculated by novel object contact […]/(novel object contact duration+familiar object contact duration)%. […] After F test for vehicle administration wild-type group and vehicle administration Tg group, the significant difference between the two groups was analyzed by Student t-test or Welch test (indicated as ** p<0.01). […]

[2] = tested on: acetylated tubulin in brain (hippocampus); assay: Increase in acetylated tubulin in brain (hippocampus ELISA); type: in vivo, C57BL/6J mouse; settings: mouse hippocampus, oral 10 mg/kg, 4 h after administration, vs vehicle
Protocol: Increase in Acetylated Tubulin in Brain
A drug was suspended in 0.5% methyl cellulose to prepare a suspension for administration, having a concentration shown in Table 3. The suspension was orally administered into 8 to […] male C57BL/6J mouse, and after the passage of the time shown in Table 3, the brain was taken out, and hippocampus was obtained. The hippocampus was homogenized under RIPA extract (Wako) to which protease inhibitor (Thermo) and phosphatase inhibitor (Thermo) were added, and centrifuged in 15,000 g for 15 min to prepare a protein extract. The acetylated tubulin and total tubulin in the extract were detected by the following ELISA method. Tubulin antibody (Sigma) was immobilized on 96-well plate (Microlite2+, Thermo), and the plate was stored at 4° C. […] The plate was washed, HRP substrate was added thereto, and the luminescence was measured using a plate reader. The acetylated tubulin and total tubulin were quantified from logistics curve based on dilution series using the mouse hippocampus tissue extract, and the acetylated tubulin relative to total tubulin was calculated, and evaluated as an relative tubulin acetylation level. […] After F test for vehicle group and drug group, the significant difference between the two groups was analyzed by Student t-test or Welch test (indicated as * p<0.05, ** p<0.01). […]

O=C1c2cc(-c3nnc(C(F)F)o3)cnc2CN1[C@@H]1CCCC[C@H]1NC(=O)C(F)(F)C(F)(F)F [Example 489, N-((1R,2R)-2-(3-(5-(difluoromethyl)-1,3,4-oxadiazol-2-yl)-5-oxo-5,7-dihydro-6H-pyrrolo[3,4-b]pyridin-6-yl)cyclohexyl)-2,2,3,3,3-pentafluoropropanamide]
Novelty Discrimination Index (NDI) ([1]; 1 mg/kg once a day for three months): significant improvement in NDI was observed | Novelty Discrimination Index (NDI) ([1]; 3 mg/kg once a day for three months): significant improvement in NDI was observed | relative tubulin acetylation level (acetylated tubulin relative to total tubulin) [2]: increase in significant tubulin acetylation level was observed
